One compound from publication PMC5361735, “Characterization and mechanisms of anti-influenza virus metabolites isolated from the Vietnamese medicinal plant Polygonum chinense” (BMC Complementary and Alternative Medicine, 2017) can be followed below.

Each structure is given as a SMILES string.

Experiment [1] concerns the target NA activity of influenza virus PR8 (Influenza A virus, UniProt P03468). It is filed as biochemical.
Experiment [2] addresses NA activity of rgPR8(H275Y) (Influenza A virus, UniProt P03468, H260Y). It counts as biochemical.

For `O=C(O)/C=C/c1ccc(O)c(O)c1` [PC8, Caffeic acid], the “NA inhibitory effect against PR8” value in experiment [1] is “less potent than that of OSV-C”. Besides, in experiment [2], the “NA inhibitory effect against rgPR8(H275Y)” value was “consistent activity”.
